Data: US7405220B2, “Pyrazolopyrimidines” (Hoffmann-La Roche Inc., priority 2004, dated 2008)

What was measured:
[1] = molecular target: human cyclin D1-Cdk4 (Homo sapiens, UniProt P11802); assay: Cdk4 FlashPlate kinase assay (Rb phosphorylation); type: biochemical; details: recombinant cyclin D1-Cdk4, Rb substrate, 1 μM ATP
Protocol: (§1) To determine inhibition of Cdk4, Cdk2 and Cdk1 activity, kinase assays were conducted using FlashPlate™ assays (NEN™-Life Science Products). FlashPlate assays were performed using recombinant human cyclin B-Cdk1, human cyclin E-Cdk2 or human cyclin D1-Cdk4 complexes. GST-cyclinE (GST-cycE), Cdk2, GST-cyclinB (GST-cycB), Cdk1, GST-Cdk4 and cyclin D1 (cycD1) cDNA clones in baculovirus vectors were provided by Dr. W. Harper at the Baylor College of Medicine, Houston, Tex. Proteins were co-expressed in High Five™ insect cells and the complex was purified on glutathione Sepharose resin (Pharmacia, Piscataway, N.J.) as previously described (Harper, J. W. et al. Cell 1993, 75, 805-816). A 6×-Histidine tagged truncated form of retinoblastoma (Rb) protein (amino acid 386-928) was used as the substrate for the cycD1-Cdk4, cycB-Cdk1 and the cycE-Cdk2 assays (the expression plasmid was provided by Dr. Veronica Sullivan, Department of Molecular Virology, Roche Research Centre, Welwyn Garden City, United Kingdom). The Rb protein is a natural substrate for phosphorylation by Cdk4, Cdk2 and Cdk1 (see Herwig and Strauss Eur. J. Biochem. Vol. 246 (1997) pp. 581-601 and the references cited therein).
(§2) The expression of the 62 Kd protein was under the control of an IPTG inducible promoter in an M15 E. coli strain. Cells were lysed by sonication and purification was carried out by binding lysates at pH 8.0 to a Ni-chelated agarose column pretreated with 1 mM imidazole. The resin was then washed several times with incrementally decreasing pH buffers to pH 6.0, and eluted with 500 mM imidazole. Eluted protein was dialysed against 20 mM HEPES pH 7.5, 30% glycerol, 200 mM NaCl, and 1 mM DTT. Purified Rb fusion protein stocks were quantitated for protein concentration, aliquoted, and stored at −70° C.
(§3) For all three kinase assays reported herein, 96-well FlashPlates were coated with Rb protein at 10 μg/ml, using 100 μl per well. Plates were incubated at 4° C. overnight or at room temperature for 3 hours on a shaker. To control for nonspecific phosphorylation, one row of wells was coated with 100 μl/well coating buffer (20 mM HEPES, 0.2 M NaCl). Plates were then washed twice with wash buffer (0.01% Tween 20 in phosphate-buffered saline). Compounds to be tested (“test compounds”) were added to the wells at 5× final concentration. Reactions were initiated by immediate addition of 40 μl reaction mix (25 mM HEPES, 20 mM MgCl2, 0.002% Tween 20, 2 mM DTT, 1 μM ATP, 4 nM 33P-ATP) and a sufficient amount of enzyme to give counts that were at least 10-fold above background. Plates were incubated at room temperature on a shaker for 30 minutes. Plates were washed four times with the wash buffer, sealed, and counted on the TopCount scintillation counter (Packard Instrument Co., Downers Grove, Ill.]. The percent inhibition of Rb phosphorylation, which is a measure of the inhibition of Cdk activity, was determined according to the following formula: […]
(§4) where “test compound” refers to the average counts per minute of the test duplicates, “nonspecific” refers to the average counts per minute when no CyclinD/Cdk4, etc., was added, and “total” refers to the average counts per minute when no compound was added. The IC50 value is the concentration of test compound that reduces by 50% the protein-kinase induced incorporation of the radiolabel under the test conditions described.

[2] = molecular target: human cyclin E-Cdk2 (Homo sapiens, UniProt P24941); assay: Cdk2 FlashPlate kinase assay (Rb phosphorylation); type: biochemical; details: recombinant cyclin E-Cdk2, Rb substrate, 1 μM ATP
Protocol: as §1, §2, §3, §4

[3] = molecular target: human cyclin B-Cdk1 (Homo sapiens, UniProt P06493); assay: Cdk1 FlashPlate kinase assay (Rb phosphorylation); type: biochemical; details: recombinant cyclin B-Cdk1, Rb substrate, 1 μM ATP
human cyclin B-Cdk1, sequence (P06493 whole entry): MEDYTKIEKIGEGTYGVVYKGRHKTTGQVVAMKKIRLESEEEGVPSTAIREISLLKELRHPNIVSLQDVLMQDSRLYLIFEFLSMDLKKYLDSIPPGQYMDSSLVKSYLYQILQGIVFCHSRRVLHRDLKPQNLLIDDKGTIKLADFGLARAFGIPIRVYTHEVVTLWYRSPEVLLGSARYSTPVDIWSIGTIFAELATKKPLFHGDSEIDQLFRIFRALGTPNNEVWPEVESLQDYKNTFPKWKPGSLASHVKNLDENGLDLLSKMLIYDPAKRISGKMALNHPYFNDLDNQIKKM
human cyclin B-Cdk1, sequence (P14635 whole entry partner): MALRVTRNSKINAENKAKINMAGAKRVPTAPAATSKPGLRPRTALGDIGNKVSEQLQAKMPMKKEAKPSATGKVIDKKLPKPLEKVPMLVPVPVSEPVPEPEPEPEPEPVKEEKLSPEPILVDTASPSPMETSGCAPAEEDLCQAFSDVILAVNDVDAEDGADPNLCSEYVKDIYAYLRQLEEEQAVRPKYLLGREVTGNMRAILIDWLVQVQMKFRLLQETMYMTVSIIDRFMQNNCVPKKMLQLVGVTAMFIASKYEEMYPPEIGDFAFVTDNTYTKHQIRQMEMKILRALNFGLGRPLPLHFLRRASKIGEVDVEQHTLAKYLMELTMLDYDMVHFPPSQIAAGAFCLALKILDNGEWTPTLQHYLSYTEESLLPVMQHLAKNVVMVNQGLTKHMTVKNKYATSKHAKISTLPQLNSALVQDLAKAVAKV
Protocol: as §1, §2, §3, §4

[4] = tested on: HCT116, a colorectal carcinoma cell line; assay: Tetrazolium dye (MTT) proliferation assay; type: cell-based; details: Homo sapiens, HCT-116; HCT116 cells
Protocol: Proliferation was evaluated by the tetrazolium dye assay according to the procedure of Denizot and Lang (Denizot, F. and Lang, R. J Immunol Methods 1986, 89, 271-277). The cell line used was HCT116, a colorectal carcinoma cell line obtained from the American Type Cell Culture Collection (ATCC; Rockville, Md.). The cells were grown in McCoy's 5A medium supplemented with 10% FCS and L-glutamine.
Cells were plated at the appropriate seeding density to give logarithmic growth over the course of the assay in a 96-well tissue culture plate. Plates were incubated overnight at 37° C. in a humidified incubator with 5% CO2. The next day, test compounds were serially diluted to four times the final concentration in the appropriate medium containing 1.2% DMSO. One-fourth final volume of each dilution was added in duplicate to the plates containing cells. The same volume of 1.2% DMSO in medium was added to a row of “control wells” such that the final concentration of DMSO in each well was 0.3%. Wells to which no cells were added served as the “blank.” Wells to which no inhibitor was added served as “no inhibitor control.” The plates were) returned to the incubator, and at set time points (determined by their growth curves) plates were analyzed as described below.
3-(4,5-dimethylthiazole-2-yl)-2,5-diphenyl-2H-tetrazolium bromide (thiazolyl blue; MTT; Sigma) was added to each well to yield a final concentration of 1 mg/ml. Plates were returned to the incubator for 2.5-3 hours at 37° C. The MTT-containing medium was removed and the resulting formazan metabolite was solubilized in 100% ethanol with shaking for 15 minutes at room temperature. Absorbance readings were taken in a microtiter plate reader (Dynatech and Molecular Devices plate readers were used interchangeably) at a wavelength of 570 nm with a 650 nm reference. Percent inhibition (% INH) is calculated by subtracting the absorbance of the blank well from all wells, then subtracting the ratio of the average absorbance of each test duplicate (SAVE) by the average of the controls (CAVE) from 1.00. The final number is then multiplied by 100 (% INH=(1.00−SAVE/CAVE)×100). The concentration at which 50% inhibition of cell proliferation is obtained (the IC50) is determined from the linear regression of a plot of the logarithm of the concentration versus percent inhibition.

human cyclin D1-Cdk4, sequence (P11802 whole entry): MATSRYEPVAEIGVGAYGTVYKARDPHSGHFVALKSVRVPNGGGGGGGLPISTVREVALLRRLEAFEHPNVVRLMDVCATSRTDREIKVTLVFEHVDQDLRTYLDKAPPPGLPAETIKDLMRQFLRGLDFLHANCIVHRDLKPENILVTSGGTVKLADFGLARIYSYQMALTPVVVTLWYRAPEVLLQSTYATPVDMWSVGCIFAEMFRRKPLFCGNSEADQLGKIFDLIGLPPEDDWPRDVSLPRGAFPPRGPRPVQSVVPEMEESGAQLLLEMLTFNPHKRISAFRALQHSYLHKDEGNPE
human cyclin D1-Cdk4, sequence (P24385 whole entry partner): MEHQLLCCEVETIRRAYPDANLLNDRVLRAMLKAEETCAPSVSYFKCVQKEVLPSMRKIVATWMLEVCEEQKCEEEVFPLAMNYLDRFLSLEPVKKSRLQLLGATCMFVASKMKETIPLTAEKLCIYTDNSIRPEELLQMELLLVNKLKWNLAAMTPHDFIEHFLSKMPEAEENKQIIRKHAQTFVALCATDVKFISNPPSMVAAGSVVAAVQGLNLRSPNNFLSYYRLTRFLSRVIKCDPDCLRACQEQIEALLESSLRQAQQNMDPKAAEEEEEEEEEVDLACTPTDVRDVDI

| SMILES | IC50 [1] [nM] | IC50 [2] [nM] | IC50 [3] [nM] | IC50 [4] [nM] |
| --- | --- | --- | --- | --- |
| COc1ccccc1-c1n[nH]c2nc(NC3CCN(S(C)(=O)=O)CC3)ncc12 [Example 28] | 14 | 18 | 107 | 1200 |
| CCOC(=O)N1CCC(Nc2ncc3c(-c4cccc(F)c4)n[nH]c3n2)CC1 [Example 43, 4-[3-(3-Fluoro-phenyl)-1H-pyrazolo[3,4-d]pyrimidin-6-ylamino]-piperidine-1-carboxylic acid ethyl ester; compound with trifluoro-acetic acid] |  | 278 |  |  |
| CS(=O)(=O)N1CCC(Nc2ncc3c(-c4c(F)cccc4F)n[nH]c3n2)CC1 [Example 29, [3-(2,6-Difluoro-phenyl)-1H-pyrazolo[3,4-d]pyrimidin-6-yl]-(1-methanesulfonyl-piperidin-4-yl)-amine] |  | 278 | 867 | 32000 |
| COc1ccccc1Nc1ncc2c(-c3c(F)cccc3F)n[nH]c2n1 [Example 40, [3-(2,6-Difluoro-phenyl)-1H-pyrazolo[3,4-d]pyrimidin-6-yl]-(2-methoxy-phenyl)-amine; compound with trifluoro-acetic acid] |  | 278 |  |  |
| COc1ccccc1-c1n[nH]c2nc(NCCCCCN)ncc12 [Example 35, [3-(2-Methoxy-phenyl)-1H-pyrazolo[3,4-d]pyrimidin-6-yl]-pentane-1,5-diamine; compound with trifluoro-acetic acid] | 1120 | 1850 |  |  |
| Cc1n[nH]c2nc(NCCO)ncc12 [Example 42, 2-(3-Methyl-1H-pyrazolo[3,4-d]pyrimidin-6-ylamino)-ethanol; compound with trifluoro-acetic acid] |  | 278 |  |  |
| COc1ccccc1-c1n[nH]c2nc(Nc3ccccc3)ncc12 [Example 38, [3-(2-Methoxy-phenyl)-1H-pyrazolo[3,4-d]pyrimidin-6-yl]-phenyl-amine] |  | 278 |  |  |
| COc1ccccc1-c1n[nH]c2nc(NCCCN(C)C)ncc12 [Example 36, N′-[3-(2-Methoxy-phenyl)-1H-pyrazolo[3,4-d]pyrimidin-6-yl]-N,N-dimethyl-propane-1,3-diamine] |  | 278 |  |  |
| COc1ccc(Nc2ncc3c(-c4ccccc4OC)n[nH]c3n2)cc1 [Example 39, (4-Methoxy-phenyl)-[3-(2-methoxy-phenyl)-1H-pyrazolo[3,4-d]pyrimidin-6-y]-amine; compound with trifluoro-acetic acid] |  | 278 |  |  |
| COc1ccccc1-c1n[nH]c2nc(NCCCCCN(C)C)ncc12 [Example 37, N-[3-(2-Methoxy-phenyl)-1H-pyrazolo[3,4-d]pyrimidin-6-yl]-N,N-dimethyl-pentane-1,5-diamine; compound with trifluoro-acetic acid] |  | 278 |  |  |
| Fc1ccc(Nc2ncc3c(-c4c(F)cccc4F)n[nH]c3n2)cc1 [Example 33, [3-(2,6-Difluoro-phenyl)-1H-pyrazolo[3,4-d]pyrimidin-6-yl]-(4-fluoro-phenyl)-amine] | 2500 | 2500 |  |  |
| COc1ccccc1-c1n[nH]c2nc(NCCO)ncc12 [Example 34, 2-[3-(2-Methoxy-phenyl)-1H-pyrazolo[3,4-d]pyrimidin-6-ylamino]-ethanol] | 344 | 594 |  |  |
| Cc1n[nH]c2nc(NC3CCN(C)CC3)ncc12 [Example 23] |  | 278 | 1460 |  |

The remaining compounds from weak to strong by IC50 [2], led by results:

| IC50 [1] [nM] | IC50 [2] [nM] | IC50 [3] [nM] | IC50 [4] [nM] | SMILES |
| --- | --- | --- | --- | --- |
| 4 | 275 |  | 1700 | COc1ccc(F)cc1-c1n[nH]c2nc(N[C@H]3CCN(S(C)(=O)=O)C[C@@H]3O)ncc12 [Example 27] |
| 41 | 244 |  | 4500 | COc1ccc(F)c(F)c1-c1n[nH]c2nc(NC3CCN(S(C)(=O)=O)CC3)ncc12 [Example 16, [3-(2,3-Difluoro-6-methoxy-phenyl)-1H-pyrazolo[3,4-d]pyrimidin-6-yl]-(1-methanesulfonyl-piperidin-4-yl)-amine] |
| 18.5 | 230 | 1140 | 30000 | CS(=O)(=O)N1CCC(Nc2ncc3c(-c4cccc(F)c4)n[nH]c3n2)CC1 [Example 31, [3-(3-Fluoro-phenyl)-1H-pyrazolo[3,4-d]pyrimidin-6-yl]-(1-methanesulfonyl-piperidin-4-yl)-amine] |
| 128 | 179 | 262 | 3930 | CS(=O)(=O)N1CCC(Nc2ncc3c(-c4ccccc4)n[nH]c3n2)CC1 [Example 30, (1-Methanesulfonyl-piperidin-4-yl)-(3-phenyl-1H-pyrazolo[3,4-d]pyrimidin-6-yl)-amine] |
| 42 | 77 |  |  | COc1ccc(F)cc1-c1n[nH]c2nc(NC3CCN(S(C)(=O)=O)CC3)ncc12 [Example 25, [3-(5-Fluoro-2-methoxy-phenyl)-1H-pyrazolo[3,4-d]pyrimidin-6-yl]-(1-methanesulfonyl-piperidin-4-yl)-amine] |
|  | 33 | 231 | 9160 | CS(=O)(=O)N1CCC(Nc2ncc3cn[nH]c3n2)CC1 [Example 19] |
|  | 24 |  |  | Cc1n[nH]c2nc(Nc3ccc(S(N)(=O)=O)cc3)ncc12 [Example 41, 4-(3-Methyl-1H-pyrazolo[3,4-d]pyrimidin-6-ylamino)-benzenesulfonamide; compound with trifluoro-acetic acid] |
| 36 | 9 |  |  | COc1ccccc1-c1n[nH]c2nc(Nc3ccc(S(N)(=O)=O)cc3)ncc12 [Example 32, 4-[3-(2-Methoxy-phenyl)-1H-pyrazolo[3,4-d]pyrimidin-6-ylamino]-benzenesulfonamide; compound with trifluoro-acetic acid] |
